The text below walks through data of US20250136619A1, “HETEROBIFUNCTIONAL COMPOUNDS AND THEIR USE IN TREATING DISEASE” (HALDA THERAPEUTICS OPCO, INC., priority 2021, published 2025).

One test has as its system HEK293 cells. Description: Cellular growth inhibition assay (CellTiter-Glo), HEK293 cells. In kind it is cell-based. Particulars: HEK293 cells, three days of compound treatment, CellTiter-Glo 2.0, read-out: CTG HEK293 GI50. The protocol:
(§1) HEK293 and HeLa cells were cultured in DMEM medium supplemented with 10% fetal bovine serum and 1% Penn/Strep. Cells were seeded in white 384-well plates at 500 cells/well in […] complete medium. Following seeding, plates were spun at 300×g for three minutes and cultured at 37° C. with 5% CO2 in a humidified tissue culture incubator.
(§2) After 24 hours, compounds were titrated in 100% DMSO and diluted in complete cell culture medium. […] of compound/media mixture was added to cells to bring total volume in well to […]. DMSO alone was used as a negative control. Plates were then spun at 300×g for three minutes and stored at 37° C. with 5% CO2 for three days.
(§3) On Day 0 and Day 3 of compound treatment, cell viability was quantified with CellTiter-Glo 2.0 reagent (Promega). After equilibrating microplates at room temperature for 30 minutes, 25 μL CellTiter-Glo 2.0 reagent was dispensed into each well to bring total volume to […]. Plates were mixed on shaker for 2 minutes at 500 rpm, followed by a 10-minute incubation at room temperature. Following a quick spin, luminescence readings were measured with an En Vision Plate Reader. Data was normalized to DMSO treated Day 0 and Day 3 readings. A four-parameter non-linear regression curve fit was applied to dose-response data in GraphPad Prism data analysis software to determine the half maximal growth inhibitory concentration (GI50) for each compound.

In a further test the test system is HeLa cells. Put plainly: Cellular growth inhibition assay (CellTiter-Glo), HeLa cells. In kind it is cell-based. Conditions: HeLa cells, three days of compound treatment, CellTiter-Glo 2.0, read-out: CTG HELA GI50. The protocol:
as §1, §2, §3
A general note: In ATP-based viability assays light output follows the ATP content of the culture.

By GI50 is commonly meant the concentration giving 50% growth inhibition.

Where two headings read alike, the source gives them in different places.

In the case of `CCc1cnn2c(NCc3ccc(OCCOCCOCCOCCOCCOCCOCCOC/C=C/C(=O)N4CCC[C@@H](n5nc(-c6ccc(Oc7ccccc7)cc6)c6c(N)ncnc65)C4)nc3)cc(N3CCCC[C@H]3CCO)nc12` [Compound I-45], the GI50 in the test on HEK293 cells (Homo sapiens, 72 h) fell in the range of 500 to 1500 nM; with HeLa cells (Homo sapiens, 72 h), 500 to 1500 nM.

As to `CCc1cnn2c(NCc3ccc(OCCOCCOCCOCCOCCOCCOCCN(C)C/C=C/C(=O)N4CCC[C@@H](n5nc(-c6ccc(Oc7ccccc7)cc6)c6c(N)ncnc65)C4)nc3)cc(N3CCCC[C@H]3CCO)nc12` [Compound I-46], the GI50 lay in the range of 1500 to 5000 nM in the test on HEK293 cells (Homo sapiens, 72 h) and 1500 to 5000 nM in the test on HeLa cells (Homo sapiens, 72 h).

Take `C=CC(=O)N1CCN([C@@H](CC2CC2)c2ccc([C@H](C)Nc3ncc4c(n3)N(CCOCCOCCOCCOCCOc3ccc(CNc5cc(N6CCCC[C@H]6CCO)nc6c(CC)cnn56)cn3)C(=O)OC4)cc2)CC1` [Compound I-57]: the GI50 with HEK293 cells (Homo sapiens, 72 h) was less than 500 nM; with HeLa cells (Homo sapiens, 72 h) it was less than 500 nM.

Turning to `C=CC(=O)N1CCN([C@@H](CC2CC2)c2ccc([C@H](C)Nc3ncc4c(n3)N(CCOCCOCCOCCOCCn3cc(CNc5cc(N6CCCC[C@H]6CCO)nc6c(CC)cnn56)ccc3=O)C(=O)OC4)cc2)CC1` [Compound I-58], the GI50 with HEK293 cells (Homo sapiens, 72 h) is 500 to 1500 nM; in the test with HeLa cells (Homo sapiens, 72 h), less than 500 nM.

On to `C=CC(=O)N1CCN([C@@H](CC2CC2)c2ccc([C@H](C)Nc3ncc4c(n3)N(CCOCCOCCOCCOCCOCCOCCON(C)C(=O)N3N=C(c5cc(F)ccc5F)SC3(CCCN)c3ccccc3)C(=O)OC4)cc2)CC1` (stereo partly drawn) [Compound I-60], for which the GI50 is 1500 to 5000 nM in the test on HEK293 cells (Homo sapiens, 72 h) and 500 to 1500 nM in the test with HeLa cells (Homo sapiens, 72 h).

Regarding `C=CC(=O)N1CCN([C@@H](CC2CC2)c2ccc([C@H](C)Nc3ncc4c(n3)N(CCOCCOCCOCCOCCOCCOCCOCCOCCON(C)C(=O)N3N=C(c5cc(F)ccc5F)SC3(CCCN)c3ccccc3)C(=O)OC4)cc2)CC1` (stereo partly drawn) [Compound I-61], the GI50 lay within 1500 to 5000 nM in the test on HEK293 cells (Homo sapiens, 72 h) and 500 to 1500 nM in the test with HeLa cells (Homo sapiens, 72 h).

For the molecule `CN(C/C=C/C(=O)N1CCC[C@@H](n2nc(-c3ccc(Oc4ccccc4)cc3)c3c(N)ncnc32)C1)CCOCCOCCOCCOCCOCCOCCNS(=O)(=O)c1ccc(Nc2ncc(Br)c(Nc3cccc(F)c3C(N)=O)n2)cc1` [Compound I-65, 2-[[2-[4-[2-[2-[2-[2-[2-[2-[2-[[(E)-4-[(3R)-3-[4-amino-3-(4-phenoxyphenyl)pyrazolo[3,4-d]pyrimidin-1-yl]-1-piperidyl]-4-oxo-but-2-enyl]-methyl-amino]ethoxy]ethoxy]ethoxy]ethoxy]ethoxy]ethoxy]ethylsulfamoyl]anilino]-5-bromo-pyrimidin-4-yl]amino]-6-fluoro-benzamide], the GI50 was greater than 5000 nM in the test on HEK293 cells (Homo sapiens, 72 h) and 1500 to 5000 nM in the test with HeLa cells (Homo sapiens, 72 h).

`CCc1cnn2c(NCc3ccc(OCCCCCn4c(C#N)ccc(N[C@@H](C)c5cc6cc(Cl)ccc6[nH]c5=O)c4=O)nc3)cc(N3CCCC[C@H]3CCO)nc12` [Compound I-89]: the figures for the GI50 in the test with HEK293 cells and in the test with HeLa cells were 1500 to 5000 nM and less than 500 nM, respectively.

With `CCc1cnn2c(NCc3ccc(OCCCCCOc4nc(C#N)ccc4N[C@@H](C)c4cc5cc(Cl)ccc5[nH]c4=O)nc3)cc(N3CCCC[C@H]3CCO)nc12` [Compound I-90, 5-[[(1S)-1-(6-chloro-2-oxo-1H-quinolin-3-yl)ethyl]amino]-6-[5-[5-[[[3-ethyl-5-[(2S)-2-(2-hydroxyethyl)-1-piperidyl]pyrazolo[1,5-a]pyrimidin-7-yl]aminomethyl]-2-pyridyl]oxy]pentoxy]pyridine-2-carbonitrile], the GI50 with HEK293 cells and in the test on HeLa cells was less than 500 nM in each case.

Regarding `CCc1cnn2c(NCc3ccc(OCCOCCOCCCCCn4c(C#N)ccc(N[C@@H](C)c5cc6cc(Cl)ccc6[nH]c5=O)c4=O)nc3)cc(N3CCCC[C@H]3CCO)nc12` [Compound I-91], the GI50 in the test with HEK293 cells and in the test on HeLa cells was less than 500 nM throughout.

On to `CCc1cnn2c(NCc3ccc(OCCOCCOCCOCCOCCNS(=O)(=O)c4cc(F)cc(N(C(=O)[C@@H]5CCC(=O)N5c5cc(C#N)ccn5)C(C(=O)NC5CC(F)(F)C5)c5ccccc5Cl)c4)nc3)cc(N3CCCC[C@H]3CCO)nc12` (stereo partly drawn) [Compound I-94], for which the results for the GI50 with HEK293 cells and in the test on HeLa cells were 1500 to 5000 nM and 500 to 1500 nM, respectively.

As for `CCc1cnn2c(NCc3ccc(=O)n(CCOCCOCCOCCOCCNS(=O)(=O)c4cc(F)cc(N(C(=O)[C@@H]5CCC(=O)N5c5cc(C#N)ccn5)C(C(=O)NC5CC(F)(F)C5)c5ccccc5Cl)c4)c3)cc(N3CCCC[C@H]3CCO)nc12` (stereo partly drawn) [Compound I-95], the 50% growth inhibitory concentration (GI50) lay within 1500 to 5000 nM with HEK293 cells and 500 to 1500 nM with HeLa cells.

Regarding `CCc1cnn2c(NCc3ccc(OCCOCCOCCCc4cc(-c5cnc([C@H](C)Nc6nccc(N7C(=O)OC[C@@H]7[C@H](C)F)n6)cc5C)cc(C(F)(F)F)n4)nc3)cc(N3CCCC[C@H]3CCO)nc12` [Compound I-99], the GI50 in the test on HEK293 cells and in the test with HeLa cells was less than 500 nM each time.

`CCc1cnn2c(NCc3ccc(=O)n(CCOCCOCCCc4cc(-c5cnc([C@H](C)Nc6nccc(N7C(=O)OC[C@@H]7[C@H](C)F)n6)cc5C)cc(C(F)(F)F)n4)c3)cc(N3CCCC[C@H]3CCO)nc12` [Compound I-100, (4R)-3-[2-[[(1S)-1-[5-[2-[3-[2-[2-[5-[[3-ethyl-5-[(2S)-2-(2-hydroxyethyl)-1-piperidyl]pyrazolo[1,5-a]pyrimidin-7-yl]aminomethyl]-2-oxo-1-pyridyl]ethoxy]ethoxy]propyl]-6-(trifluoromethyl)-4-pyridyl]-4-methyl-2-pyridyl]ethyl]amino]pyrimidin-4-yl]-4-[(1S)-1-fluoroethyl]oxazolidin-2-one]: the GI50 in the test on HEK293 cells (Homo sapiens, 72 h) is less than 500 nM; in the test with HeLa cells (Homo sapiens, 72 h) it was less than 500 nM.

For the molecule `CCc1cnn2c(NCc3ccc(OCCCc4cc(-c5cnc([C@H](C)Nc6nccc(N7C(=O)OC[C@@H]7[C@H](C)F)n6)cc5C)cc(C(F)(F)F)n4)nc3)cc(N3CCCC[C@H]3CCO)nc12` [Compound I-101], the GI50 in the test with HEK293 cells and in the test on HeLa cells was less than 500 nM throughout.

`CCc1cnn2c(NCc3ccc(OCCOCCOCCOCCOCCCc4cc(-c5cnc([C@H](C)Nc6nccc(N7C(=O)OC[C@@H]7[C@H](C)F)n6)cc5C)cc(C(F)(F)F)n4)nc3)cc(N3CCCC[C@H]3CCO)nc12` [Compound I-102]: the GI50 with HEK293 cells and with HeLa cells was less than 500 nM each time.

For `CCc1cnn2c(NCc3ccc(=O)n(CCOCCOCCOCCOCCCc4cc(-c5cnc([C@H](C)Nc6nccc(N7C(=O)OC[C@@H]7[C@H](C)F)n6)cc5C)cc(C(F)(F)F)n4)c3)cc(N3CCCC[C@H]3CCO)nc12` [Compound I-103], the GI50 with HEK293 cells and in the test on HeLa cells was 500 to 1500 nM in each case.

For the molecule `CCNC(=O)C[C@@H]1N=C(c2ccc(OCCOCCOCCOCCOCCNS(=O)(=O)c3cc(F)cc(N(C(=O)[C@@H]4CCC(=O)N4c4cc(C#N)ccn4)C(C(=O)NC4CC(F)(F)C4)c4ccccc4Cl)c3)cc2)c2c(sc(C)c2C)-n2c(C)nnc21` (stereo partly drawn) [Compound I-104, (2S)—N-[1-(2-chlorophenyl)-2-[(3,3-difluorocyclobutyl)amino]-2-oxo-ethyl]-1-(4-cyano-2-pyridyl)-N-[3-[2-[2-[2-[2-[2-[4-[(9S)-9-[2-(ethylamino)-2-oxo-ethyl]-4,5, 13-trimethyl-3-thia-1,8,11,12-tetrazatricyclo[8.3.0.0^2,6]trideca-2 (6),4,7,10,12-pentaen-7-yl]phenoxy]ethoxy]ethoxy]ethoxy]ethoxy]ethylsulfamoyl]-5-fluoro-phenyl]-5-oxo-pyrrolidine-2-carboxamide], the 50% growth inhibitory concentration (GI50) in the test with HEK293 cells (Homo sapiens, 72 h) is greater than 5000 nM; with HeLa cells (Homo sapiens, 72 h), greater than 5000 nM.
